From PubChem BioAssay (NCI) come the findings set out here.

Molecules are shown by their SMILES.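 Exposure lasted 48 hours, with cells grown in 96-well plates and compounds tested at five concentrations. GI50 marks 50% less growth. TGI marks complete inhibition of growth.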

Test systems include NCI-H23 lung; A498 renal; TK-10 renal; MOLT-4 leukemia; T-47D breast; BT-549 breast; NCI-H522 lung; CAKI-1 renal; CCRF-CEM leukemia; SN12C renal.
What all share (experiment): DTP human tumour cell line panel, 48 h

What is called TGI is the concentration at which net growth stops. Take `CC(=O)[C@H]1CC[C@@H]2[C@]1(C)CC=C1[C@]23C=C[C@]2(C[C@@H](O)CC[C@]12C)C(C(=O)O)C3C(=O)O` (stereo not given in full): the TGI with NCI-H23 lung, with A498 renal, in the assay with TK-10 renal, in the assay with MOLT-4 leukemia, with T-47D breast and in the assay on BT-549 breast was above 100 µM throughout. The TGI in the assay on NCI-H522 lung, in the assay on CAKI-1 renal, in the assay with CCRF-CEM leukemia and in the assay on SN12C renal was above 100 µM throughout.
On to `CCOP(=O)(OCC)C(Cc1cn(S(=O)(=O)c2ccc(C)cc2)cn1)C(=O)O` (stereo not given), for which the TGI in the assay with NCI-H23 lung, in the assay with A498 renal, in the assay on TK-10 renal, with MOLT-4 leukemia, with T-47D breast and with BT-549 breast was above 100 µM each time. Moreover, the TGI in the assay on NCI-H522 lung, in the assay with CAKI-1 renal, in the assay on CCRF-CEM leukemia and in the assay with SN12C renal was above 100 µM throughout.
For `O=S1(=O)OCCOS(=O)(=O)C1C1c2ccccc2-c2ccccc21`, the total growth inhibition concentration (TGI) is above 100 µM in the assay with NCI-H23 lung; above 100 µM with A498 renal; above 100 µM with TK-10 renal; 48.2 µM with MOLT-4 leukemia; above 100 µM with T-47D breast; above 100 µM in the assay on BT-549 breast. The TGI is 64.5 µM with NCI-H522 lung, 98.5 µM in the assay with CAKI-1 renal, 89.4 µM in the assay on CCRF-CEM leukemia and above 100 µM in the assay with SN12C renal.
For `CCc1c[n+]2c(cc1C1=CN3c4ccccc4[C@]45CCN6C/C(=C/CO)[C@H](C[C@H]64)[C@@H]([C@@H]1O)[C@H]35)-c1[nH]c3ccccc3c1CC2`, the TGI in the assay on NCI-H23 lung, in the assay on A498 renal, in the assay on TK-10 renal, with MOLT-4 leukemia, with T-47D breast and with BT-549 breast was above 50 µM throughout. In addition, the TGI in the assay on NCI-H522 lung, with CAKI-1 renal, in the assay with CCRF-CEM leukemia and in the assay on SN12C renal was above 50 µM in each case.
With `CC(NC(=O)C(NC(=O)C(NC(=O)C(F)(F)F)C(C)C)C(C)C)C(=O)Oc1c(Cl)c(Cl)c(Cl)c(Cl)c1Cl` (stereo not given), the TGI in the assay with NCI-H23 lung, with A498 renal, with TK-10 renal, with MOLT-4 leukemia, in the assay on T-47D breast and with BT-549 breast was above 100 µM in each case. Moreover, the TGI in the assay with NCI-H522 lung, in the assay on CAKI-1 renal, with CCRF-CEM leukemia and in the assay on SN12C renal was above 100 µM throughout.
`O=C(NC12CC3CC(CC(C3)C1)C2)n1cnc2c(Cl)ncnc21`: the TGI in the assay with NCI-H23 lung is 65.4 µM; in the assay with A498 renal it was above 100 µM; with TK-10 renal, above 100 µM; with MOLT-4 leukemia, 52.2 µM; in the assay with T-47D breast, above 100 µM; in the assay on BT-549 breast, 84.1 µM. For the same compound, the TGI with NCI-H522 lung is 97.5 µM; with CAKI-1 renal, above 100 µM; in the assay on CCRF-CEM leukemia, 45.7 µM; with SN12C renal it was above 100 µM.
On to `O=C(NC1CCCCC1)N1CCNC1=S`, for which the TGI in the assay on NCI-H23 lung, with A498 renal, with TK-10 renal, with MOLT-4 leukemia, in the assay with T-47D breast and in the assay with BT-549 breast was above 100 µM throughout. The TGI with NCI-H522 lung, in the assay on CAKI-1 renal, with CCRF-CEM leukemia and in the assay with SN12C renal was above 100 µM in each case.
For the compound `Clc1ccc(CCNCCNC2(c3cc4ccccc4s3)CCCCC2)cc1Cl`, the TGI in the assay with NCI-H23 lung is 3.38 µM; in the assay on A498 renal, 3.17 µM; in the assay on TK-10 renal it was 3.07 µM; with MOLT-4 leukemia, 4.53 µM; in the assay on T-47D breast it was 4.07 µM; in the assay with BT-549 breast, 3.44 µM. Moreover, the TGI in the assay on NCI-H522 lung is 3.37 µM; in the assay on CAKI-1 renal, 3.42 µM; in the assay with CCRF-CEM leukemia it was 5.39 µM; with SN12C renal, 3.53 µM.
What is called GI50 is the concentration giving 50% growth inhibition. Regarding `O=C(/C=C/c1cc2ccccc2[nH]c1=O)c1ccc(O)cc1`, the GI50 with NCI-H23 lung was 3.18 µM; in the assay on A498 renal, 8.44 µM; in the assay on TK-10 renal, 3.81 µM; in the assay with MOLT-4 leukemia, 3.04 µM; in the assay with T-47D breast it was 4.19 µM; in the assay on BT-549 breast it was 1.95 µM. Further, the GI50 with NCI-H522 lung is 1.7 µM; with CAKI-1 renal it was 4.71 µM; in the assay with CCRF-CEM leukemia, 2.38 µM; in the assay on SN12C renal it was 3.48 µM. In addition, the TGI with NCI-H23 lung came out at 20 µM; in the assay on A498 renal, 21.3 µM; in the assay on TK-10 renal, 11.8 µM; in the assay on MOLT-4 leukemia, 9.91 µM; in the assay with T-47D breast it was 20.4 µM; with BT-549 breast, 5.35 µM. For the same compound, the TGI in the assay on NCI-H522 lung is 3.29 µM; with CAKI-1 renal, above 100 µM; in the assay with CCRF-CEM leukemia it was above 100 µM; in the assay on SN12C renal, 16 µM.
Take `O=C(N/N=C/c1ccc(O)cc1)NNCCO`: the concentration for total growth inhibition (TGI) in the assay with NCI-H23 lung, in the assay with A498 renal, in the assay on TK-10 renal, in the assay with MOLT-4 leukemia, in the assay with T-47D breast and with BT-549 breast was above 100 µM each time. Further, the TGI with NCI-H522 lung, in the assay with CAKI-1 renal, in the assay with CCRF-CEM leukemia and with SN12C renal was above 100 µM throughout.
`COc1c(C(=O)CC2c3c(cc4oc(C)cc(=O)c4c3OC)OC(=N)C2c2nc3ccccc3[nH]2)c(O)c(OC)c2occc12` (stereo not given): the TGI with NCI-H23 lung, with A498 renal, with TK-10 renal, with MOLT-4 leukemia, in the assay with T-47D breast and in the assay on BT-549 breast was above 100 µM throughout. The TGI in the assay with NCI-H522 lung, in the assay with CAKI-1 renal, with CCRF-CEM leukemia and in the assay with SN12C renal was above 100 µM each time.
